# Assay results from PubChem BioAssay (NCI).
#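 Here, GI50 denotes the concentration required for 50% inhibition of growth. TGI: concentration producing complete growth inhibition.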
# Assays:
# Assay in all cases: NCI tumour cell line growth inhibition, 384-well format
# MDA-MB-435 melanoma = tested on: MDA-MB-435 melanoma
# HS 578T breast = tested on: HS 578T breast
# HL-60(TB) leukemia = tested on: HL-60(TB) leukemia
# HCC-2998 colon = tested on: HCC-2998 colon
# HCT-116 colon = tested on: HCT-116 colon
# OVCAR-5 ovarian = tested on: OVCAR-5 ovarian
# LOX IMVI melanoma = tested on: LOX IMVI melanoma
# SNB-75 CNS = tested on: SNB-75 CNS
# NCI-H226 lung = tested on: NCI-H226 lung
# UACC-257 melanoma = tested on: UACC-257 melanoma
# HOP-62 NSCLC = tested on: HOP-62 NSCLC
# MALME-3M melanoma = tested on: MALME-3M melanoma
Compound,GI50 (MDA-MB-435 melanoma) [µM],TGI (MDA-MB-435 melanoma) [µM],GI50 (HS 578T breast) [µM],TGI (HS 578T breast) [µM],GI50 (HL-60(TB) leukemia) [µM],TGI (HL-60(TB) leukemia) [µM],GI50 (HCC-2998 colon) [µM],TGI (HCC-2998 colon) [µM],GI50 (HCT-116 colon) [µM],TGI (HCT-116 colon) [µM],GI50 (OVCAR-5 ovarian) [µM],TGI (OVCAR-5 ovarian) [µM],GI50 (LOX IMVI melanoma) [µM],TGI (LOX IMVI melanoma) [µM],GI50 (SNB-75 CNS) [µM],TGI (SNB-75 CNS) [µM],GI50 (NCI-H226 lung) [µM],TGI (NCI-H226 lung) [µM],GI50 (UACC-257 melanoma) [µM],TGI (UACC-257 melanoma) [µM],also measured
COc1cc(C)[nH]c(=O)c1CN1CCc2c(Cl)cc([C@H](OC)C3COC3)c(Cl)c2C1=O,> 100,> 100,> 100,> 100,> 78.5,> 100,> 100,> 100,> 100,> 100,> 100,> 100,> 100,> 100,> 100,> 100,> 100,> 100,> 100,> 100,GI50 (HOP-62 NSCLC): > 100 µM; TGI (HOP-62 NSCLC): > 100 µM; GI50 (MALME-3M melanoma): > 100 µM; TGI (MALME-3M melanoma): > 100 µM
C[C@@H](Oc1cc(NS(=O)(=O)N2CCC2)nc(SCc2cccc(F)c2F)n1)[C@@H](O)CO,> 100,> 100,57.7,> 100,> 36,> 51.2,> 77.4,> 100,> 100,> 100,> 100,> 100,42.1,> 100,> 100,> 100,> 89.3,> 100,> 87.1,> 100,GI50 (HOP-62 NSCLC): > 100 µM; TGI (HOP-62 NSCLC): > 100 µM; GI50 (MALME-3M melanoma): > 82.1 µM; TGI (MALME-3M melanoma): > 100 µM
